Data published in patent publication US9394305B2, “Substituted imidazo[1,2-a]pyridine compounds as tropomyosin receptor kinase a (TrkA) inhibitors” (Dr. Reddy's Laboratories Ltd., priority 2014, dated 2016).

target: T1, TrkA kinase (Homo sapiens, UniProt P04629); experiment: In vitro TrkA inhibitory activity using TR-FRET assay; assay type: biochemical; conditions: 5 ng TrkA, 500 μM ATP, values given as bins, read-out: TrkA inhibition in-vitro IC50
T1 construct: purchased Upstate, USA
Procedure: Compounds were screened in the TR-FRET assay with TrkA kinase. 5 ng of TrkA [Upstate, USA] kinase was used for assay. The compound was incubated with the kinase for 30 minutes at 20-35° C. After the incubation, substrate mix [40 nM Ultra light poly GT (Perkin Elmer, USA) and 500 μM ATP] was added. The above reaction was stopped by the addition of 40 mM EDTA after 30 minutes. The Eu-labelled antiphospho-tyrosine antibody [Perkin Elmer, USA] was added at 0.5 nM and the fluorescence emission at 615 nm/665 nm [excitation at 340 nm] was measured. The compounds were initially screened at 100 nM, 1 μM and 10 μM concentrations. The potent compounds with >25% inhibition at 1 μM of TrkA were taken for the full dose response studies. The final DMSO concentration in the assay was […]. For IC50 determination, ⅓^rd serial dilution was made from the 20 mM DMSO stock solution. 2 μl of these were transferred to the test wells containing 20 μl reaction mixture [Total reaction volume 22 μl]. The fluorescence was measured in Perkin Elmer Wallac 1420 Multilabel Counter Victor 3. The IC50 was determined by fitting the dose response data to a sigmoidal curve fitting equation using GraphPad Prism software version 5.

T1 sequence (P04629 33-796): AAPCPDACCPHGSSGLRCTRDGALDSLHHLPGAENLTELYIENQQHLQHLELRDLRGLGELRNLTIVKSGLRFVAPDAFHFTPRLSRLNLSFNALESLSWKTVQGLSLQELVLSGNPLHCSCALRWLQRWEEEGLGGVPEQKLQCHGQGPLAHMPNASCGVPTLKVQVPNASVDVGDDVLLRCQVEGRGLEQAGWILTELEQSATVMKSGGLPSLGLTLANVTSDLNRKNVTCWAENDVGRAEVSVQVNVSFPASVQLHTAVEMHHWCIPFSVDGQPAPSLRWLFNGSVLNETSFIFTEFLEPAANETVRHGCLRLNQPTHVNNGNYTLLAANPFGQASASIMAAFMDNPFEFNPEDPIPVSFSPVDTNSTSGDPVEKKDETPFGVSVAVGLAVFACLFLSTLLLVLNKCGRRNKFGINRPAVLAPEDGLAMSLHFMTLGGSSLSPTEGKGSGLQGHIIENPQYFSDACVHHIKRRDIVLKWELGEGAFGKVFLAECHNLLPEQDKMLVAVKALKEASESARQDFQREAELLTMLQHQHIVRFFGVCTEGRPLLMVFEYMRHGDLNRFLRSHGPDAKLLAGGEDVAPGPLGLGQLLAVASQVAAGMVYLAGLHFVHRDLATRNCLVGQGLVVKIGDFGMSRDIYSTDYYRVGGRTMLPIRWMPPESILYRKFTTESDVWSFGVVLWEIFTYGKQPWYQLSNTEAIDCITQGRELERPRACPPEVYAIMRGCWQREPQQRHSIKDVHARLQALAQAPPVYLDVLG

SMILES | IC50
CCN(C)S(=O)(=O)NC(=O)c1cnc2ccc(N3CCC[C@@H]3c3cc(F)ccc3F)cn12 [Example 34, (R)-6-(2-(2,5-difluorophenyl)pyrrolidin-1-yl)-N-(N-ethyl-N-methylsulfamoyl)imidazo[1,2-a]pyridine-3-carboxamide] | ≤ 50 nM
O=C(NS(=O)(=O)c1ccc(N2CC[C@H](O)C2)cc1)c1cnc2ccc(N3CCC[C@@H]3c3cc(F)ccc3F)cn12 [Example 36, 6-((R)-2-(2,5-difluorophenyl)pyrrolidin-1-yl)-N-((4-((S)-3-hydroxypyrrolidin-1-yl)phenyl)sulfonyl)imidazo[1,2-a]pyridine-3-carboxamide] | 100 to 500 nM
CN(CCF)S(=O)(=O)NC(=O)c1cnc2ccc(N3CCC[C@@H]3c3cc(F)ccc3F)cn12 [Example 38, (R)-6-(2-(2,5-difluorophenyl)pyrrolidin-1-yl)-N-(N-(2-fluoroethyl)-N-methylsulfamoyl)imidazo[1,2-a]pyridine-3-carboxamide] | ≤ 50 nM
COCCN(C)S(=O)(=O)NC(=O)c1cnc2ccc(N3CCC[C@@H]3c3cc(F)ccc3F)cn12 [Example 39, (R)-6-(2-(2,5-difluorophenyl)pyrrolidin-1-yl)-N-(N-(2-methoxyethyl)-N-methylsulfamoyl)imidazo[1,2-a]pyridine-3-carboxamide] | ≤ 50 nM
CN(CC(F)(F)F)S(=O)(=O)NC(=O)c1cnc2ccc(N3CCC[C@@H]3c3cc(F)ccc3F)cn12 [Example 41, (R)-6-(2-(2,5-difluorophenyl)pyrrolidin-1-yl)-N-(N-methyl-N-(2,2,2-trifluoroethyl)sulfamoyl)imidazo[1,2-a]pyridine-3-carboxamide] | ≤ 50 nM
CN(c1cccnc1)S(=O)(=O)NC(=O)c1cnc2ccc(N3CCC[C@@H]3c3cc(F)ccc3F)cn12 [Example 43, (R)-6-(2-(2,5-difluorophenyl)pyrrolidin-1-yl)-N-(N-methyl-N-(pyridin-3-yl)sulfamoyl)imidazo[1,2-a]pyridine-3-carboxamide] | ≤ 50 nM
O=C(NS(=O)(=O)N(CC1CC1)c1cccnc1)c1cnc2ccc(N3CCC[C@@H]3c3cc(F)ccc3F)cn12 [Example 44, (R)-N-(N-(cyclopropylmethyl)-N-(pyridin-3-yl)sulfamoyl)-6-(2-(2,5-difluorophenyl)pyrrolidin-1-yl)imidazo[1,2-a]pyridine-3-carboxamide] | 50 to 100 nM
CN(c1cnccn1)S(=O)(=O)NC(=O)c1cnc2ccc(N3CCC[C@@H]3c3cc(F)ccc3F)cn12 [Example 45, (R)-6-(2-(2,5-difluorophenyl)pyrrolidin-1-yl)-N-(N-methyl-N-(pyrazin-2-yl)sulfamoyl)imidazo[1,2-a]pyridine-3-carboxamide] | ≤ 50 nM
CN(c1ccccn1)S(=O)(=O)NC(=O)c1cnc2ccc(N3CCC[C@@H]3c3cc(F)ccc3F)cn12 [Example 47, (R)-6-(2-(2,5-difluorophenyl)pyrrolidin-1-yl)-N-(N-methyl-N-(pyridin-2-yl)sulfamoyl)imidazo[1,2-a]pyridine-3-carboxamide] | ≤ 50 nM
CN(c1nccs1)S(=O)(=O)NC(=O)c1cnc2ccc(N3CCC[C@@H]3c3cc(F)ccc3F)cn12 [Example 48, (R)-6-(2-(2,5-difluorophenyl)pyrrolidin-1-yl)-N-(N-methyl-N-(thiazol-2-yl)sulfamoyl)imidazo[1,2-a]pyridine-3-carboxamide] | ≤ 50 nM
COc1ccc(F)cc1[C@H]1CCCN1c1ccc2ncc(C(=O)NS(=O)(=O)N(C)CCF)n2c1 [Example 56, (R)-6-(2-(5-fluoro-2-methoxyphenyl)pyrrolidin-1-yl)-N-(N-(2-fluoroethyl)-N-methylsulfamoyl)imidazo[1,2-a]pyridine-3-carboxamide] | ≤ 50 nM
CCN(C)S(=O)(=O)NC(=O)c1cnc2ccc(N3C[C@@H](F)C[C@@H]3c3cc(F)ccc3OCCF)cn12 [Example 57, N-(N-ethyl-N-methylsulfamoyl)-6-((2R,4S)-4-fluoro-2-(5-fluoro-2-(2-fluoroethoxy)phenyl)pyrrolidin-1-yl)imidazo[1,2-a]pyridine-3-carboxamide] | ≤ 50 nM
CC(C)(C)S(=O)(=O)NC(=O)c1cnc2ccc(N3C[C@@H](F)C[C@@H]3c3cc(F)ccc3OCCF)cn12 [Example 58, N-(tert-butylsulfonyl)-6-((2R,4S)-4-fluoro-2-(5-fluoro-2-(2-fluoroethoxy)phenyl)pyrrolidin-1-yl)imidazo[1,2-a] pyridine-3-carboxamide] | ≤ 50 nM
CC(C)(C)S(=O)(=O)NC(=O)c1cnc2ccc(N3C[C@@H](F)C[C@@H]3c3cc(F)ccc3O[C@@H]3CCOC3)cn12 [Example 59, N-(tert-butylsulfonyl)-6-((2R,4S)-4-fluoro-2-(5-fluoro-2-(((R)-tetrahydrofuran-3-yl)oxy)phenyl)pyrrolidin-1-yl)imidazo[1,2-a]pyridine-3-carboxamide] | ≤ 50 nM
CCN(C)S(=O)(=O)NC(=O)c1cnc2ccc(N3C[C@@H](F)C[C@@H]3c3cc(F)ccc3O[C@@H]3CCOC3)cn12 [Example 60, N-(N-ethyl-N-methylsulfamoyl)-6-((2R,4S)-4-fluoro-2-(5-fluoro-2-(((R)-tetrahydrofuran-3-yl)oxy)phenyl)pyrrolidin-1-yl)imidazo[1,2-a]pyridine-3-carboxamide] | ≤ 50 nM
CN(CCF)S(=O)(=O)NC(=O)c1cnc2ccc(N3C[C@@H](F)C[C@@H]3c3cc(F)ccc3O[C@@H]3CCOC3)cn12 [Example 62, 6-((2R,4S)-4-fluoro-2-(5-fluoro-2-(((R)-tetrahydrofuran-3-yl)oxy)phenyl)pyrrolidin-1-yl)-N-(N-(2-fluoroethyl)-N-methylsulfamoyl)imidazo[1,2-a]pyridine-3-carboxamide] | ≤ 50 nM

Next, values leading:

IC50 | SMILES
50 to 100 nM | O=C(NS(=O)(=O)c1ccc(-n2cncn2)cc1)c1cnc2ccc(N3CCC[C@@H]3c3cc(F)ccc3F)cn12 [Example 35, (R)-N-((4-(1H-1,2,4-triazol-1-yl)phenyl)sulfonyl)-6-(2-(2,5-difluorophenyl)pyrrolidin-1-yl)imidazo[1,2-a]pyridine-3-carboxamide]
≤ 50 nM | CCCN(C)S(=O)(=O)NC(=O)c1cnc2ccc(N3CCC[C@@H]3c3cc(F)ccc3F)cn12 [Example 37, (R)-6-(2-(2,5-difluorophenyl)pyrrolidin-1-yl)-N-(N-methyl-N-propylsulfamoyl)imidazo[1,2-a]pyridine-3-carboxamide]
50 to 100 nM | CCN(CCF)S(=O)(=O)NC(=O)c1cnc2ccc(N3CCC[C@@H]3c3cc(F)ccc3F)cn12 [Example 40, (R)-6-(2-(2,5-difluorophenyl)pyrrolidin-1-yl)-N-(N-ethyl-N-(2-fluoroethyl)sulfamoyl)imidazo[1,2-a]pyridine-3-carboxamide]
≤ 50 nM | CN(CC(C)(C)F)S(=O)(=O)NC(=O)c1cnc2ccc(N3CCC[C@@H]3c3cc(F)ccc3F)cn12 [Example 42, (R)-6-(2-(2,5-difluorophenyl)pyrrolidin-1-yl)-N-(N-(2-fluoro-2-methylpropyl)-N-methylsulfamoyl)imidazo[1,2-a] pyridine-3-carboxamide]
50 to 100 nM | O=C(NS(=O)(=O)c1ccc(-n2ccnc2)nc1)c1cnc2ccc(N3CCC[C@@H]3c3cc(F)ccc3F)cn12 [Example 46, (R)-N-((6-(1H-imidazol-1-yl)pyridin-3-yl)sulfonyl)-6-(2-(2,5-difluorophenyl)pyrrolidin-1-yl)imidazo[1,2-a]pyridine-3-carboxamide]
100 to 500 nM | CC1(S(=O)(=O)NC(=O)c2cnc3ccc(N4CCCC4c4cc(F)cc5c4OCCO5)cn23)CC1 (stereo not drawn) [Example 50, 6-(2-(7-fluoro-2,3-dihydrobenzo[b][1,4]dioxin-5-yl)pyrrolidin-1-yl)-N-((1-methylcyclopropyl)sulfonyl)imidazo[1,2-a]pyridine-3-carboxamide]
50 to 100 nM | CCCN(C)S(=O)(=O)NC(=O)c1cnc2ccc(N3CCC[C@@H]3c3cc(F)ccc3OC)cn12 [Example 53]
≤ 50 nM | CCN(C)S(=O)(=O)NC(=O)c1cnc2ccc(N3CCC[C@@H]3c3cc(F)ccc3OC)cn12 [Example 55, (R)-N-(N-ethyl-N-methylsulfamoyl)-6-(2-(5-fluoro-2-methoxyphenyl)pyrrolidin-1-yl)imidazo[1,2-a]pyridine-3-carboxamide]
50 to 100 nM | CCN(C)S(=O)(=O)NC(=O)c1cnc2ccc(N3C[C@@H](F)C[C@@H]3c3cc(F)cc4c3OCCO4)cn12 [Example 68, N-(N-ethyl-N-methylsulfamoyl)-6-((2R,4S)-4-fluoro-2-(7-fluoro-2,3-dihydrobenzo[b][1,4]dioxin-5-yl)pyrrolidin-1-yl)imidazo[1,2-a]pyridine-3-carboxamide]

same assay, conditions: 5 ng TrkA, 500 μM ATP, values given as bins, read-out: TrkA inhibitory activity in-vitro IC50

SMILES | IC50
O=C(NS(=O)(=O)c1ccc(N2CC[C@H](O)C2)cc1)c1cnc2ccc(N3CCCCC3c3cc(F)ccc3F)cn12 (stereo partly drawn) [Example 49, 6-(2-(2,5-difluorophenyl)piperidin-1-yl)-N-((4-((S)-3-hydroxypyrrolidin-1-yl)phenyl)sulfonyl)imidazo[1,2-a]pyridine-3-carboxamide] | 1000 to 10000 nM
O=C(NS(=O)(=O)c1ccc(N2CC[C@H](O)C2)nc1)c1cnc2ccc(N3CCCCC3c3cc(F)ccc3F)cn12 (stereo partly drawn) [Example 51, 6-(2-(2,5-difluorophenyl)piperidin-1-yl)-N-((6-((S)-3-hydroxypyrrolidin-1-yl)pyridin-3-yl)sulfonyl)imidazo[1,2-a]pyridine-3-carboxamide] | 1000 to 10000 nM
